From article PMC8179358, “An explicitly designed paratope of amyloid-β prevents neuronal apoptosis in vitro and hippocampal damage in rat brain” (Chemical Science, 2020)
*1 amine or outer side, *2 acyl side, *3 side chain or, on linkers, in order; H or OH if unused. Where a SMILES comes first, the peptide text is derived from it. Bridges are numbered along the chain shown (N, C = ends). Roman numbers before positions name the chains, in order. [ ]: non-standard residue; d: D form. X1 = O=C(CCCCC(=O)[*:2])NCCCOCCOCCOCCCNC(=O)CCC(=O)[*:1]; NMeF = CN[C@@H](Cc1ccccc1)C(=O)O; NMeL = CN[C@@H](CC(C)C)C(=O)O; NMeV = CN[C@H](C(=O)O)C(C)C

Experiments:
[1] = molecular target: T1, Aβ40 (Homo sapiens, UniProt P05067); assay: Thioflavin T assay, inhibition of Aβ40 amyloid formation; format: biochemical; settings: ThT assay; Aβ40 50 μM; 5-fold molar excess; PBS 50 mM pH 7.4, 3% DMSO, 37 °C
T1 construct: 15N labeled (a) Aβ40 (80 μM)
Description: First, we monitored the kinetics of the amyloid formation of Aβ40 (50 μM) by thioflavin T (ThT) assay (Fig. 2a and b). The Aβ40 peptide alone aggregated with time, with a growth saturation point around 72 h, as evident from the surge in ThT fluorescence intensity. […] Green-gold birefringence appears to be a standard result of Aβ40 aggregation under cross-polarized light post-staining with Congo red dye. Owing to amyloid formation, Aβ40 appears as green-gold birefringence (Fig. 2d) under cross-polarized light when stained with Congo red.
400μL of the sample was taken in a cuvette of 1mm path length. Three measurements were accumulated.
Spectra were recorded from 190nm to 260nm on a JASCO J-1500 instrument. […]
1.5 mg of commercially available Aβ40 peptide was taken and disaggregated by TFA (50μ L) and evaporated under nitrogen gas. […] To obtain precise results, two more replicate solutions of each portion were prepared (total number of samples for this experiment was 27), and fibrillization was monitored by various biophysical tools. […]
b. Thioflavin T Fluorescence Assay
A stock solution of Thioflavin T (ThT) of concentration 50μM in PBS (50mM, pH 7.4) was prepared and stored at 4 °C with the proper protection to prevent degradation from light. […] For fluorescence studies, 40μLof peptide sample was mixed with 200μL of ThT solution (50μM), and the total volume was made up to 400μL using PBS. […]

[2] = molecular target: T1, Aβ40; assay: NMR titration with SVD, residue-specific KD; format: binding; settings: residues R5, L17, V24, K28, and G29 of Aβ40, read-out: dissociation constant (KD)

With `CC(C)C[C@H](NC(=O)CNC(=O)CCC(=O)NCCCOCCOCCOCCCNC(=O)CCCCC(=O)NCC(=O)N(C)[C@@H](CC(C)C)C(=O)N[C@H](C(=O)N(C)[C@@H](Cc1ccccc1)C(=O)N[C@@H](Cc1ccccc1)C(=O)N[C@@H](C)C(N)=O)C(C)C)C(=O)N(C)[C@H](C(=O)N[C@@H](Cc1ccccc1)C(=O)N(C)[C@@H](Cc1ccccc1)C(=O)N[C@@H](C)C(N)=O)C(C)C` [SP1] (I: GL[NMeV]F[NMeF]A-NH2 / II: G[NMeL]V[NMeF]FA-NH2; linker I:N-II:N via X1) the “inhibition of Aβ40 amyloid formation” value [1] was about 66% and the Kd [2] was about 200 µM.
